According to US11613525B2 (CTXT PTY LIMITED, priority 2018, dated 2023):
Like-named read-outs stand apart in the source and are kept apart here.

Columns and labels:
[1] = molecular target: T1, huSTING (WT) (Homo sapiens (Human), UniProt Q86WV6, H232R); assay: THP-1 reporter cell line assay, THP-1-Dual KI-hSTING-R232 cells; type: cell-based; details: read-out: Cellular EC50 huSTING (WT)
Target sequence in this assay (Q86WV6 whole entry H232R): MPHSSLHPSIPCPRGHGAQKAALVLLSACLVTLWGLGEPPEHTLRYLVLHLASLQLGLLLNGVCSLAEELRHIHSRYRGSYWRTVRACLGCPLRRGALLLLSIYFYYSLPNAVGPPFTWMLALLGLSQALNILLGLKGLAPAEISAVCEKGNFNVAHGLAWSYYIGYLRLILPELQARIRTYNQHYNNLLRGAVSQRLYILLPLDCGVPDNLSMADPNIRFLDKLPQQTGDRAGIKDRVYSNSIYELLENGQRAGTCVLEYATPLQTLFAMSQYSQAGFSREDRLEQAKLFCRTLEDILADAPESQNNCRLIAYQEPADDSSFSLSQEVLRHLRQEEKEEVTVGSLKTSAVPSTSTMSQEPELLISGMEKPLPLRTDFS

[2] = molecular target: T1, huSTING (WT); assay: Differential scanning fluorimetry (DSF), huSTING (WT); type: binding; details: read-out: DSF huSTING (WT) ΔTm (° C.)
Procedure: (§1) DSF monitors thermal unfolding of protein in the presence of a fluorescent dye and is typically performed using a real-time PCR instrument. The temperature at which a protein unfolds is measured by an increase in the fluorescence of a dye with affinity for hydrophobic parts of the protein that are gradually exposed during unfolding. The fluorescence of the dye is quenched in aqueous environments, but when the dye associates with hydrophobic sites on the unfolded protein, its fluorescence increases. The fluorescence intensity is plotted as a function of the temperature, generating a sigmoidal curve that can be described by a two-state transition. The inflection point of the transition curve (Tm) is calculated using simple equations such as that of Boltzman.
(§2) Sealed plates were then placed into a Bio-Rad CFX96/C1000 thermocycler and FRET scanning mode (λ^excitation of 490 nm and reads at λ^emission of 570 nm) was used to measure fluorescence intensity. […] The melting point (Tm) obtained for STING protein alone was subtracted from Tm obtained for protein incubated with ligand to generate ΔTm values listed in the table below.
(§3) These additional compounds were tested as described above, however the protein concentration was 2 μM.
Target sequence in this assay (Q86WV6 other isoform, or with tags, fused parts or gaps, stated change not applied): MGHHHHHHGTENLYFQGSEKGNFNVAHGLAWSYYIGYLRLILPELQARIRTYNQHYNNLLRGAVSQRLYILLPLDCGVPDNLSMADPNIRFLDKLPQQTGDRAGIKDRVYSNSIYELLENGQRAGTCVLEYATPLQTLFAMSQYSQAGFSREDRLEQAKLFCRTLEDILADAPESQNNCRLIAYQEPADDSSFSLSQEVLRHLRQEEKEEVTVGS

[3] = molecular target: huSTING (HAQ) (Homo sapiens (Human), UniProt Q86WV6, G230A/H232R/R293Q/R71H); assay: THP-1 reporter cell line assay, THP-1 STING Lucia ISG cells; type: cell-based; details: THP-1 STING Lucia ISG cells, read-out: Cellular EC50 huSTING (HAQ)
[4] = molecular target: T2, human STING (HAQ) (Homo sapiens, UniProt Q86WV6, G230A/H232R/R293Q); details: read-out: SPR (HAQ) KD; 25° C.
[5] = molecular target: T2, human STING (HAQ); assay: biochemical; type: binding
Procedure: as §1, §2, §3

[6] = molecular target: T2, human STING (HAQ); assay: SPR (HAQ) 8° C.; type: binding; details: 50% occupancy as surrogate KD, read-out: SPR huSTING (HAQ) KD at 8° C.
Description: (§4) Binding interactions of ligands with STING proteins were quantified using Surface Plasmon Resonance (SPR) with a minimally biotinylated STING protein immobilized on Streptavidin chip surface.
(§5) These were modified for compounds with longer residence times, so that curves could reach steady-state, or so that compound would be fully dissociated before the subsequent injection.
(§6) For single-cycle kinetic experiments, sensorgrams were fit to a two-step kinetic model in which two analyte molecules bind sequentially (Biacore T200 or S200 Evaluation Software).

[7] = molecular target: T1, huSTING (WT); assay: SPR (WT) 8° C.; type: binding; details: read-out: SPR huSTING (WT) KD at 8° C.
Description: as §4, §5, §6
Target sequence in this assay (Q86WV6 other isoform, or with tags, fused parts or gaps, stated change not applied): as above

[8] = 1 μM protein, compound at 100 μM
[9] = modified method, top concentration 40 μM, pin tool, EnVision
[10] = compound 100 μM, protein concentration 2 μM

Sequence of huSTING (HAQ) (Q86WV6 whole entry R71H/G230A/H232R/R293Q): as the sequence (Q86WV6 whole entry H232R) above, with R71H, G230A, R293Q counted along it
T2 sequence (Q86WV6 whole entry G230A/H232R/R293Q, looked up): as the sequence (Q86WV6 whole entry H232R) above, with G230A, R293Q counted along it

SMILES	EC50 [1] [µM]	ΔTm at 100 µM [2] [°C]	EC50 ([3]; 24 h, top concentration 50 μM) [µM]	Kd [4] [µM]	DSF huSTING (HAQ) ΔTm (° C.) [5, 8] [°C]	Kd [6] [µM]	Kd [7] [µM]	EC50 [3, 9] [µM]	DSF huSTING (HAQ) ΔTm (° C.) [5, 10] [°C]
NC(=O)c1cc(Cl)c(OCc2c(C(=O)O)sc3cccc(Cl)c23)c(Cl)c1 [Example 40, 3-((4-Carbamoyl-2,6-dichlorophenoxy)methyl)-4-chlorobenzo[b]thiophene-2-carboxylic acid]	39.7	3.66	> 50	2.8	9.91				
NC(=O)c1ccc(OCc2c(C(=O)O)sc3cccc(Cl)c23)cn1 [Example 46, 3-(((6-Carbamoylpyridin-3-yl)oxy)methyl)-4-chlorobenzo[b]thiophene-2-carboxylic acid]	> 50	1.77	> 50	9.7	7.26				
Nc1noc2cc(OCc3c(C(=O)O)sc4cccc(Cl)c34)ccc12 [Example 48, 3-(((3-Aminobenzo[d]isoxazol-6-yl)oxy)methyl)-4-chlorobenzo[b]thiophene-2-carboxylic acid]	> 50	-4.63	> 50	16.3	1.92				
NC(=O)c1ccc(OCc2c(C(=O)O)sc3cccc(F)c23)cc1Cl [Example 50, 3-((4-Carbamoyl-3-chlorophenoxy)methyl)-4-fluorobenzo[b]thiophene-2-carboxylic acid]	> 50	0.02	> 50	20.9	5.11				
NC(=O)c1ccc(OCc2c(C(=O)O)sc3cccc(F)c23)cc1C(F)(F)F [Example 52, 3-((4-Carbamoyl-3-(trifluoromethyl)phenoxy)methyl)-4-fluorobenzo[b]thiophene-2-carboxylic acid]	> 50	-2.15	> 50	260	−1.22				
Cc1cc(OCc2c(C(=O)O)sc3cccc(F)c23)ccc1C(N)=O [Example 54, 3-((4-Carbamoyl-3-methylphenoxy)methyl)-4-fluorobenzo[b]thiophene-2-carboxylic acid]	> 50	-1.28	> 50	51	2.56				
NC(=O)c1cc(F)c(OCc2c(C(=O)O)sc3cccc(F)c23)c(Br)c1 [Example 56, 3-((2-Bromo-4-carbamoyl-6-fluorophenoxy)methyl)-4-fluorobenzo[b]thiophene-2-carboxylic acid]	> 50	-1.29	> 50	29	4.48				
NC(=O)c1cc(F)c(OCc2c(C(=O)O)sc3cccc(F)c23)c(F)c1 [Example 57, 3-((4-Carbamoyl-2,6-difluorophenoxy)methyl)-4-fluorobenzo[b]thiophene-2-carboxylic acid]	> 50	3.43	> 50	9.05	10.74				
NC(=O)c1ccc(OCc2c(C(=O)O)sc3cccc(F)c23)c(F)c1 [Example 59, 3-((4-carbamoyl-2-fluorophenoxy)methyl)-4-fluorobenzo[b]thiophene-2-carboxylic acid]	> 50	0.54	> 50	15.2	7.31				
NC(=O)c1ccc(OCc2c(C(=O)O)sc3cccc(C4CC4)c23)cc1 [Example 61, 3-((4-Carbamoylphenoxy)methyl)-4-cyclopropylbenzo[b]thiophene-2-carboxylic acid]	> 50	5.68	39.6	0.83	14.62				
NC(=O)c1ccc(OCc2c(C(=O)O)sc3cccc(Cl)c23)cc1Br [Example 64, 3-((3-Bromo-4-carbamoylphenoxy)methyl)-4-chlorobenzo[b]thiophene-2-carboxylic acid]	> 50	2.73	> 50	6.2	6.79				
NC(=O)c1cc(F)c(OCc2c(C(=O)O)sc3cccc(Cl)c23)c(Br)c1 [Example 71, 3-((2-Bromo-4-carbamoyl-6-fluorophenoxy)methyl)-4-chlorobenzo[b]thiophene-2-carboxylic acid]	40.4	5.11	21.4	2.12	12.18				
NC(=O)c1ccc(CCc2c(C(=O)O)sc3cccc(F)c23)cc1 [Example 88, 3-(4-Carbamoylphenethyl)-4-fluorobenzo[b]thiophene-2-carboxylic acid]	> 50	-1.07	> 50	533	0.97				
COc1ncnc2sc(C(=O)O)c(COc3c(F)cc(C(N)=O)cc3F)c12 [Example 109, 5-((4-Carbamoyl-2,6-difluorophenoxy)methyl)-4-methoxythieno[2,3-d]pyrimidine-6-carboxylic acid]	> 40					160	200	> 40	8.60
COCc1cc(OCc2c(C(=O)O)sc3cccc(Cl)c23)ccc1C(N)=O [Example 113, 3-((4-Carbamoyl-3-(methoxymethyl)phenoxy)methyl)-4-chlorobenzo[b]thiophene-2-carboxylic acid]	> 40					52		> 40	5.60
NC(=O)c1cc(F)c(OCc2c(C(=O)O)sc3cncc(Cl)c23)c(F)c1 [Example 171, Lithium 3-((4-carbamoyl-2,6-difluorophenoxy)methyl)-4-chlorothieno[2,3-c]pyridine-2-carboxylate]	> 40					4.87		> 40	9.33
COc1nccc2sc(C(=O)O)c(COc3c(F)cc(C(N)=O)cc3CO)c12 [Example 172, 3-((4-Carbamoyl-2-fluoro-6-(hydroxymethyl)phenoxy)methyl)-4-methoxythieno[3,2-c]pyridine-2-carboxylic acid]	> 40					220		> 40	0.56
